The record followed here is ChEMBL document CHEMBL1147525, “Structure-activity relationships of untenone A and its derivatives for inhibition of DNA polymerases” (Bioorg Med Chem Lett, 2004).

Assay [1] addresses Nucleic Acid. As to the kind of experiment: Inhibitory activity against mammalian DNA polymerase beta. The class given is nucleic-acid assay.
Assay [2] addresses DNA nucleotidylexotransferase (Homo sapiens, UniProt P04053). The assay can be described thus: Inhibitory activity against human terminal deoxynucleotidyltransferase.
Assay [3] has as its target Nucleic Acid. As to the kind of experiment: Inhibitory activity against mammalian DNA polymerase alpha. It is filed as nucleic-acid assay.

Chain of DNA nucleotidylexotransferase (P04053 whole entry): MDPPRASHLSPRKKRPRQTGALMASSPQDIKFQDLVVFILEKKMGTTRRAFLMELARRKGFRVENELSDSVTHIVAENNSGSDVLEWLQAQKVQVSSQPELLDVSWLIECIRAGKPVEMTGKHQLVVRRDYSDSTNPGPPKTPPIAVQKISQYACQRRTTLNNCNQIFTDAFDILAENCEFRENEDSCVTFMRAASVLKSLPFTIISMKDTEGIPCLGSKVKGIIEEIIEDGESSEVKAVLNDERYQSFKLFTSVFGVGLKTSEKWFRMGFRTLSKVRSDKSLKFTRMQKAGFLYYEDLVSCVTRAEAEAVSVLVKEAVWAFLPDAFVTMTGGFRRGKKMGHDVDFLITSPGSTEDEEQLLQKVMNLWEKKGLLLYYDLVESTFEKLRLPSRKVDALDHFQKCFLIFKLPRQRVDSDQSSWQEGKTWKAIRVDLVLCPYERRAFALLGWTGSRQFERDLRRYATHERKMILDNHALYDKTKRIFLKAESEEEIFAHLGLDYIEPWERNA

With `CCCCCCCCCCCCCCCC[C@H]1C=CC(=O)[C@@H]1C(=O)OC` (racemic), the half-inhibitory concentration (IC50) (commonly the concentration that inhibits the measured activity by half) against Nucleic Acid [1] worked out at 90 µM; in assay [2], 84 µM; at Nucleic Acid [3], 20 µM.
Take `CCCCCCCCCCCCCCCC[C@]1(O)C=CC(=O)C1` (racemic): the half-inhibitory concentration (IC50) (at Nucleic Acid [1]; in assay [2]; against Nucleic Acid [3]) was greater than 200 µM each time.
As to `CCCCCCCCCCCCCCCCC1=C[C@H](C(=O)O)[C@H]2CC(C(=O)O)=C(CCCCCCCCCCCCCCCC)[C@H]2[C@H]1C(=O)OC` (racemic), the IC50 at Nucleic Acid [1] was determined as 3.2 µM; in assay [2] it was 2.5 µM; against Nucleic Acid [3], 1.9 µM.
Taken in the same sequence, the figures for `CCCCCCCCCCCCCCCC[C@]1(O)C=CC(=O)[C@H]1C(=O)OC` (racemic) [UNTENONE A] were 57 µM, 16 µM and 4.3 µM.
In the case of `CCCCCCCCCCCCCCCC[C@]1(OCOC)C=CC(=O)[C@H]1C(=O)OC` (racemic), the IC50 was found to be 9.3 µM against Nucleic Acid [1], 18 µM in assay [2] and 5.9 µM on Nucleic Acid [3].
`CCCCCCCCCCCCCCCCC1=C(C(=O)OC)C(=O)CC1`: the IC50 on Nucleic Acid [1] is 107 µM; in assay [2], 129 µM; on Nucleic Acid [3], 17 µM.
